For two compounds, binding, KD and EC50 results are on record in PMC8949142 (2022).

Molecules are shown by their SMILES.

For experiment [1], the system named is G48nop (DNA, aptamer) GCGACCGAAGTGAGGCTCGATCCAAGGTGGACGGGAGGTTGGATTGTGCGTG
As to the kind of experiment: biolayer interferometry. The following applies: 100 mM Na+, 5 mM K+, 2 mM Mg2+, 1 mM Ca2+, 20 mM Tris-HCl pH 7.6.

The subject of experiment [2] is G48nop (FAM) (DNA, aptamer) GCGACCGAAGTGAGGCTCGATCCAAGGTGGACGGGAGGTTGGATTGTGCGTG
As to the kind of experiment: microscale thermophoresis. To be noted: 100 mM Na+, 5 mM K+, 2 mM Mg2+, 1 mM Ca2+, 20 mM Tris-HCl pH 7.6, 0.02% Tween-20, 25 °C.

In experiment [3] the test system is G48 (DNA, aptamer) GGGAGGACGAAGCGGAACGCGACCGAAGTGAGGCTCGATCCAAGGTGGACGGGAGGTTGGATTGTGCGTGCAGAAGACACGCCCGACA
Description: biolayer interferometry. To be noted: 100 mM Na+, 5 mM K+, 2 mM Mg2+, 1 mM Ca2+; 20 mM Tris-HCl pH 7.6; 1:1 fit. For orientation: BLI is a label-free optical method that tracks binding on a fibre tip over time.

In experiment [4] the test system is G48norsj (DNA, aptamer) CGATCCAAGGTGGACGGGAGGTTGGATTG
As to the kind of experiment: biolayer interferometry. The following applies: 100 mM Na+, 5 mM K+, 2 mM Mg2+, 1 mM Ca2+; 20 mM Tris-HCl pH 7.6; 1:1 fit.

Experiment [5] deals with G48nors (DNA, aptamer) TGAGGCTCGATCCAAGGTGGACGGGAGGTTGGATTGTGCGTG
As to the kind of experiment: biolayer interferometry. The following applies: 100 mM Na+, 5 mM K+, 2 mM Mg2+, 1 mM Ca2+; 20 mM Tris-HCl pH 7.6; 1:1 fit.

Experiment [6] deals with G13 (DNA, aptamer) GGGAGGACGAAGCGGAACCCATGGGGTGTGAGGCTCGATCAGGAGGTAAAAGCAGCGCGTCGTCAGTGTGCAGAAGACACGCCCGACA
As to the kind of experiment: biolayer interferometry. To be noted: 100 mM Na+, 5 mM K+, 2 mM Mg2+, 1 mM Ca2+; 20 mM Tris-HCl pH 7.6; 1:1 fit.

For experiment [7], the system named is G48nop (unlabeled) (DNA, aptamer) GCGACCGAAGTGAGGCTCGATCCAAGGTGGACGGGAGGTTGGATTGTGCGTG
Description: circular dichroism. To be noted: 100 mM Na+, 5 mM K+, 2 mM Mg2+, 1 mM Ca2+; 20 mM Tris-HCl pH 7.6, 20 °C; 5 µM aptamer; qualitative. A general note: CD spectra are sensitive to the conformation of chiral molecules.

The test system of experiment [8] is control (random) sequence (FAM) (DNA, single strand) GAGCCTTAGCAGCACTTCACACGATCCACCCTTAAGGCCAACCTTAACACGACCTCAAACACTGCGTAATGACTGTAGTGATGCCTTA
As to the kind of experiment: microscale thermophoresis. The following applies: 100 mM Na+, 5 mM K+, 2 mM Mg2+, 1 mM Ca2+; 20 mM Tris-HCl pH 7.6, 0.02% Tween-20, 25 °C; GYM-A up to 10,000 nM; not fittable. (In general: MST reads how a fluorescent partner responds to local heating, with and without ligand.)

The subject of experiment [9] is random sequence (control) (DNA, single strand) GAGCCTTAGCAGCACTTCACACGATCCACCCTTAAGGCCAACCTTAACACGACCTCAAACACTGCGTAATGACTGTAGTGATGCCTTA
Description: biolayer interferometry. The following applies: 100 mM Na+, 5 mM K+, 2 mM Mg2+, 1 mM Ca2+; 20 mM Tris-HCl pH 7.6; tested at 0.5 µM.

Experiment [10] deals with G79 (DNA, aptamer) GGGAGGACGAAGCGGAACGGGGGTGGGTTGAGGCTCGATCATGATAGCGAATTGGACACGATTCGTGTACCAGAAGACACGCCCGACA
As to the kind of experiment: biolayer interferometry. To be noted: 100 mM Na+, 5 mM K+, 2 mM Mg2+, 1 mM Ca2+; 20 mM Tris-HCl pH 7.6; 1:1 fit.

The test system of experiment [11] is G24 (DNA, aptamer) GGGAGGACGAAGCGGAACGGGCGGGATTTGAGGCTCGATCCGACTACGGATACGGCTTGCTTGTATCCGCCAGAAGACACGCCCGACA
As to the kind of experiment: biolayer interferometry. To be noted: 100 mM Na+, 5 mM K+, 2 mM Mg2+, 1 mM Ca2+; 20 mM Tris-HCl pH 7.6; 1:1 fit.

Experiment [12] relates to G48nop (DNA, aptamer) GCGACCGAAGTGAGGCTCGATCCAAGGTGGACGGGAGGTTGGATTGTGCGTG
As to the kind of experiment: BLI aptasensor calibration, five-parameter logistic fit. The following applies: 100 mM Na+, 5 mM K+, 2 mM Mg2+, 1 mM Ca2+; 20 mM Tris-HCl pH 7.6; GYM-A 55–14,000 nM; slope exponent -0.7837.

The test system of experiment [13] is G29 (DNA, aptamer) GGGAGGACGAAGCGGAACCGTAGGAAAGTGAGGCTCGATCTACCCTTGGATCGATTTGTCAGGTGGGGACCAGAAGACACGCCCGACA
As to the kind of experiment: biolayer interferometry. To be noted: 100 mM Na+, 5 mM K+, 2 mM Mg2+, 1 mM Ca2+; 20 mM Tris-HCl pH 7.6; 1:1 fit.

For experiment [14], the system named is G16 (DNA, aptamer) GGGAGGACGAAGCGGAACCACCTTGAGATGAGGCTCGATCACCGGTGGGTATAGTGGTCGCGATGTATACCAGAAGACACGCCCGACA
Description: biolayer interferometry. The following applies: 100 mM Na+, 5 mM K+, 2 mM Mg2+, 1 mM Ca2+; 20 mM Tris-HCl pH 7.6; 1:1 fit.

With `C=C1[C@@H](O)[C@@H]2O[C@]3(CC[C@H](/C=C/[C@@H](C)[C@@H]4CC(C)=C[C@@]5(O[C@H](C[C@@](C)(O)C(=O)O)CC[C@H]5O)O4)O3)CC[C@H]2O[C@@H]1[C@@H](O)C[C@H](C)[C@H]1O[C@@]2(CCCCO2)CC[C@H]1C`, the binding entry is recorded as “no” in experiment [1] (tested up to 1.5 µM) and “no” in [2] (NB [sic], highest concentration not stated).
In the case of `CC1=C[C@@H](C2=C(C)[C@@H]3/C=C(\C)[C@@H](O)CC[C@@H]4C[C@@H](C)[C@@H](O4)/C(C)=C/CCC4=NCCC[C@@]43CC2)OC1=O`, the KD (as a rule, the concentration at which binding is half-saturated) in experiment [3] was 0.288 µM; in experiment [4] it was 0.501 µM; in experiment [5], 0.354 µM; in experiment [6], 168,000 nM; in experiment [1] (1:1 fit), 0.0953 µM; in [2] it was 0.0345 ± 0.00172 µM. Also, the equilibrium dissociation constant (KD) in experiment [10] came out at 0.341 µM; in [11] it was 0.859 µM; in experiment [13] it was 0.308 µM; in experiment [14], 0.495 µM. Further, the binding entry in experiment [7] is recorded as “yes”; in experiment [8] it was “no”; in experiment [9], “no”. In addition, the EC50 (in general, the concentration needed to bring the measured effect to its halfway point) in experiment [12] was 3.316 µM.
